Measured values taken from publication PMC7560827, “Immunodominant proteins P1 and P40/P90 from human pathogen Mycoplasma pneumoniae” (Nature Communications, 2020).

Legend:
[1] = target: T1, P40/P90N (Mycoplasmoides pneumoniae, UniProt Q50341)
T1 construct: gene orf6

[2] = target: T1, P40/P90N; remark: listed apart in the source

SMILES | X-ray crystal structure, 3.2 Å [1] [TLZ for the 3SL complex] | X-ray crystal structure, 2.8 Å [2] [TM0 for the 6SL complex]
CC(=O)N[C@H]1[C@H]([C@H](O)[C@H](O)CO)O[C@@](O[C@H]2[C@@H](O)[C@@H](CO)O[C@@H](O[C@H]3[C@H](O)[C@@H](O)C(O)O[C@@H]3CO)[C@@H]2O)(C(=O)O)C[C@@H]1O (some centres unmarked) [3SL] | 6 | –
CC(=O)N[C@H]1[C@H]([C@H](O)[C@H](O)CO)O[C@@](OC[C@H]2O[C@@H](O[C@H]3[C@H](O)[C@@H](O)C(O)O[C@@H]3CO)[C@H](O)[C@@H](O)[C@H]2O)(C(=O)O)C[C@@H]1O (some centres unmarked) [6SL] | – | 6
